From patent publication US12611423B2, “Medical use of tafoxiparin” (DILAFOR AB, priority 2022, dated 2026)

System: term pregnant, nulliparous women with an unripe cervix
Test: Clinical phase II trial PPL17 (Parts A and B), subcutaneous tafoxiparin vs placebo
Type: in vivo, human
Details: for Labor induced with PGE-1, % of women: placebo 10.2%; for Fetal distress as indication for operative delivery (ODFD), % of women: placebo 22.7%; for patients with operative delivery, % / women needing instrumental delivery (FIG. 4, vaginal mode of partus): placebo 45.5%; for Labor induced with amniotomy, % of women: placebo 56.8%; for Labor induction with Balloon catheter, % of women: placebo 58.0%; for Labor induced, % of women: placebo 70.5%; for women needing instrumental delivery or caesarian section to reach partus (FIG. 5): placebo 52%; for women reaching partus by vaginal delivery with no need for instrumental delivery nor caesarian section (FIG. 5): placebo 48%; for number of subjects (women) that reach spontaneous onset of labor / subjects (women) that reach spontaneous onset of labor, % of n: cumulative, n = 37
Experimental: A clinical phase II trial is performed as a randomized, double-blind, placebo-controlled, parallel-group proof of concept study (Part A) with a conditional dose finding follow up study (Part B) to evaluate the efficacy, safety, tolerability and dose response of subcutaneously administered tafoxiparin as a supplement to induction therapy in term pregnant, nulliparous women with an unripe cervix. The study is performed in Sweden and Finland (PPL17), and an EMA (European Medicines Agency) description of the study can be found on the EU Clinical Trials Register web (www.clinicaltrialsregister.eu/ctr-search/search?query=PPL17).
A total of 170 term pregnant women are randomized to receive either 300 mg of tafoxiparin, or corresponding placebo (vehicle), administered subcutaneously every 24±3 hours and up to a total of 7 doses, or until partus (Part A).
In the dose finding follow up study (Part B), a total of 164 term pregnant women are randomized to receive either 75 or 150 mg of tafoxiparin administered subcutaneously every 24±3 hours […] and up to a total of 7 doses, or until partus.
To assess the efficacy of tafoxiparin on cervical ripening/cervical ripening rate, during and up to the first seven days of treatment, measured by Bishop score. All women must be examined to check the cervical state before enrollment.
Tafoxiparin/Placebo is supplied by Dilafor AB to the site as kits designed to constitute 300 mg of tafoxiparin or placebo for daily administration. Apart from the active substance, each ml of study drug will constitute 0.015 M phosphate buffer. The study medication kit for each patient will contain 8 doses consisting of 2 vials containing a minimum extractable volume of 1.6 ml of 150 mg/ml of tafoxiparin or placebo. One dose is a reserve dose in case a dose is rendered unusable. The investigational product should be administered subcutaneously every 24±3 hours by the site staff for up to 7 doses, or until partus. At each dosing time 1.0 ml of the drug will be extracted from each of the 2 vials and injected as separate s.c. injections in the abdominal or hip region.
Tafoxiparin/Placebo is supplied by Dilafor AB to the site as kits designed to constitute 75 or 150 mg of tafoxiparin for daily administration. Apart from the active substance, each ml of study drug will constitute 0.015 M phosphate buffer. The study medication kit for each patient will contain 8 doses consisting of 2 vials for each injection occasion containing a minimum extractable volume of 1.6 ml of 150 mg/ml of tafoxiparin or placebo. For subjects receiving 75 mg of tafoxiparin, one vial will contain active substance and one containing placebo. For subjects receiving 150 mg of tafoxiparin, both vials will contain active substance. One dose is a reserve dose in case a dose is rendered unusable. The investigational product should be administered subcutaneously every 24±3 hours by the site staff for up to 7 doses, or until partus. At each dosing time, 0.5 ml of the drug will be extracted from each of the 2 vials and injected as separate s.c. injections in the abdominal or hip region.
If the subject is found to be eligible for the study, they will be randomized to study treatment, i.e. 300 mg of tafoxiparin or corresponding placebo daily (Part A), or 75 or 150 mg daily (Part B).
The study medication will be administered subcutaneously in the abdominal or hip region for up to a total of 7 doses or until labor induction or spontaneous onset of labor. If the cervix is still unripe after 7 doses of IMP, the patient is given cervical balloon catheter as a mean of labor induction.
Subjects who enter into spontaneous onset of labor after 1-7 doses of IMP should be managed according to clinical routines.
Subjects who are given 4-7 doses without entering into spontaneous onset of labor, but with a ripe cervix (Bishop Score ≥6), should be induced into labor by amniotomy and oxytocin treatment, but not before 4 treatment doses have been given. […]

With tafoxiparin the “Labor induced with oxytocin, number of women” value (150 mg, n = 85) was 38, the “Labor induced, number of women” value (150 mg, n = 85) was 48 and the “Labor induction with Balloon catheter, number of women” value (150 mg, n = 85) was 37. For the same substance, the “Number of patients with operative delivery” value (150 mg, n = 85) was 41, the “Labor induced with PGE-1, % of women” value (150 mg, n = 85) was 8.2% and the “Fetal distress as indication for operative delivery (ODFD), % of women” value (150 mg, n = 85) was 23.5%. For the same substance, the “patients with operative delivery, %” value (150 mg, n = 85) was 48.2%, the “Labor induced with oxytocin, % of women” value (150 mg, n = 85, placebo 54.5%) was 44.7% and the “Labor induced with amniotomy, % of women” value (150 mg, n = 85) was 45.9%. For the same substance, the “Labor induction with Balloon catheter, % of women” value (150 mg, n = 85) was 43.5%, the “Labor induced, % of women” value (150 mg, n = 85) was 56.5% and the “women needing instrumental delivery (FIG. 4, vaginal mode of partus)” value (150 mg, women with spontaneous onset of labor, 9 of the 32 women, p-value 0.422) was 28.1%. For the same substance, the “women needing instrumental delivery or caesarian section to reach partus (FIG. 5)” value (150 mg, women with spontaneous onset of labor, 13 of 36 women) was 36.1%, the “women reaching partus by vaginal delivery with no need for instrumental delivery nor caesarian section (FIG. 5)” value (150 mg, women with spontaneous onset of labor, 23 of 36 women) was 63.9% and the “time point of spontaneous onset of labor (FIG. 3, change of Bishop score)” value (300 mg and 150 mg, women with spontaneous onset of labor) was “achieved spontaneous onset of labor at an earlier time point than women treated with 75 mg tafoxiparin and placebo”. The “women achieving spontaneous onset of labor (FIG. 1)” value (300 mg s.c. once daily up to 7 doses, 37 women of 90, p-value=0.089 (part A 0.080), placebo 28.7%) was 41.1%, the “development day-by-day towards a spontaneous onset of labor” value (300 mg, 150 mg, 75 mg, Table 3) was “shows a dose-response relationship” and the “women reaching spontaneous onset of labor with uncomplicated delivery” value (300 mg, 27 of the 33 women, placebo 54.5%) was 81.8%. For the same substance, the “number of subjects (women) that reach spontaneous onset of labor” value (shortened to “number of subjects”) (300 mg, Study day 1) was 2, the “subjects (women) that reach spontaneous onset of labor, % of n” value (“subjects … % of n” below) (300 mg, Study day 1) was “(5%)” and the “number of subjects” value (300 mg, Study day 2) was 11. The “subjects … % of n” value (300 mg, Study day 2) was “(30%)”, the “number of subjects” value (300 mg, Study day 3) was 18 and the “subjects … % of n” value (300 mg, Study day 3) was “(49%)”. For the same substance, the “number of subjects” value (300 mg, Study day 4) was 23, the “subjects … % of n” value (300 mg, Study day 4) was “(62%)” and the “number of subjects” value (300 mg, Study day 5) was 30. For the same substance, the “subjects … % of n” value (300 mg, Study day 5) was “(81%)”, the “number of subjects” value (300 mg, Study day 6) was 34 and the “subjects … % of n” value (300 mg, Study day 6) was “(92%)”. The “number of subjects” value (300 mg, Study day 7) was 37, the “subjects … % of n” value (300 mg, Study day 7) was “(100%)” and the “Fetal distress as indication for operative delivery (ODFD), number of women” value (300 mg, n = 91) was 11. For the same substance, the “Labor induced with PGE-1, number of women” value (300 mg, n = 91) was 5, the “Labor induced with amniotomy, number of women” value (300 mg, n = 91) was 50 and the “Labor induced with oxytocin, number of women” value (300 mg, n = 91) was 45. The “Labor induced, number of women” value (300 mg, n = 91) was 53, the “Labor induction with Balloon catheter, number of women” value (300 mg, n = 91) was 42 and the “Number of patients with operative delivery” value (300 mg, n = 91) was 32. The “Labor induced with PGE-1, % of women” value (300 mg, n = 91) was 5.5%, the “Fetal distress as indication for operative delivery (ODFD), % of women” value (300 mg, n = 91) was 12.1% and the “patients with operative delivery, %” value (300 mg, n = 91) was 35.2%. For the same substance, the “Labor induced with oxytocin, % of women” value (300 mg, n = 91, placebo 54.5%) was 49.5%, the “Labor induced with amniotomy, % of women” value (300 mg, n = 91) was 54.9% and the “Labor induction with Balloon catheter, % of women” value (300 mg, n = 91) was 46.2%. The “Labor induced, % of women” value (300 mg, n = 91) was 58.2%, the “women needing instrumental delivery (FIG. 4, vaginal mode of partus)” value (300 mg, women with spontaneous onset of labor, 6 of the 33 women, p-value=0.048 (part A 0.053)) was 18.2% and the “women needing instrumental delivery or caesarian section to reach partus (FIG. 5)” value (300 mg, women with spontaneous onset of labor, 10 of the 37 women) was 27%. The “women reaching partus by vaginal delivery with no need for instrumental delivery nor caesarian section (FIG. 5)” value (300 mg, women with spontaneous onset of labor, 27 of the 37 women) was 73%, the “effect on achieving spontaneous onset of labor” value (all three doses 300 mg, 150 mg and 75 mg) was “effective for achieving spontaneous onset of labor” and the “effect on mode of partus” value (all three doses 300 mg, 150 mg and 75 mg, compared to placebo) was “effective for a person to reach partus by vaginal delivery and with less need for instrumental delivery or caesarian section”. For the same substance, the “effect on need for instrumental delivery” value (all three doses (300 mg, 150 mg and 75 mg), women with spontaneous onset of labor, compared to placebo) was “effective in reducing the need for instrumental delivery”, the “effect on need for intervention to achieve onset of labor” value (all three doses, compared to placebo) was “reduced the need for intervention in order to achieve onset of labor” and the “time point of achieving a ripe cervix” value (any one of the three doses 75 mg, 150 mg and 300 mg, vs placebo) was “achieve a ripe cervix at an earlier time point than women that have been treated with placebo”. For the same substance, the “need for operative delivery (caesarean section and instrumental delivery) due to fetal distress” value (conclusion of the clinical study) was “reduction of the need for operative delivery”, the “effect on cervical ripening (FIG. 3)” value (doses 300 mg and 150 mg) was “beneficial effect on cervical ripening” and the “estimated cervical ripening rate measured by Bishop score (FIG. 6)” value (first 7 days of treatment, all three doses (300 mg, 150 mg and 75 mg) compared to placebo) was “higher”. The “labor time up to vaginal delivery (partus) (FIG. 2, Kaplan-Meier)” value (women with spontaneous onset of labor, 300 mg (p=0.070), 150 mg (p 0.654), 75 mg (p 0.114) vs placebo) was “shorter labor time up to vaginal delivery (partus) compared to placebo”.
